# Experimental data taken from US11396517B1, “Exo-aza spiro inhibitors of menin-MLL interaction” (Janssen Pharmaceutica NV, priority 2017, dated 2022).
# Where two headings read alike, the source gives them in different places.
# Legend:
# [1] = molecular target: T1, menin (Homo sapiens, UniProt O00255, T541A); assay: Menin/MLL homogenous time-resolved fluorescence (HTRF) assay; format: binding
# T1 construct: Menin (a.a. 1-610-6×his tag)
# T1 sequence (O00255 with tags, fused parts or gaps T541A): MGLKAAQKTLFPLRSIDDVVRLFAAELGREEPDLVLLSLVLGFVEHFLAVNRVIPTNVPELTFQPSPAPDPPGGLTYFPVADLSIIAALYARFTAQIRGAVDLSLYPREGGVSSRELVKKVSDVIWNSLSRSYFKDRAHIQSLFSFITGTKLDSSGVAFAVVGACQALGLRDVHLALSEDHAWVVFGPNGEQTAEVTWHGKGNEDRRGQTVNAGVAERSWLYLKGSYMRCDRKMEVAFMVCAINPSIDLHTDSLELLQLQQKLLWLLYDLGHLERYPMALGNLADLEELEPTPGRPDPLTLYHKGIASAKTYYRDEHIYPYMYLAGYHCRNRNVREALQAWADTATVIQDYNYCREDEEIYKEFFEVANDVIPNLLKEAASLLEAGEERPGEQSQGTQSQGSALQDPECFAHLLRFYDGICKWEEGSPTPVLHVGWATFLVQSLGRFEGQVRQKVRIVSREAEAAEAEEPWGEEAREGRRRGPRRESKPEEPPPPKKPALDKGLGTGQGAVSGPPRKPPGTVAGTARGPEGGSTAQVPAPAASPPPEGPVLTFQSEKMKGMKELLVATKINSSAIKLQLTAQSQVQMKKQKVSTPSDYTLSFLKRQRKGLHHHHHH
# How it was run: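 Terbium-labeled menin (aa 1-610, His-tagged; […]) preincubated 5 min with compound, then 75 nM FITC-MBM1 peptide for 15 min, ambient, Tris pH 7.5, 0.5% DMSO. HTRF 520/490 ratio; 11-point 3-fold titration; IC50 from % inhibition fit.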
# [2] = system: MV-4-11; assay: Proliferation assay A (spheroid assay) MV-4-11; format: cell-based, human; details: MV-4-11 cells, 8 d, AUC of confluence against time, absolute IC50, read-out: (3a) Spheroid assay MV-4-11 (IC50(μM)) Assay A
# Method: 3a) Proliferation Assay A
# The anti-proliferative effect of menin/MLL protein/protein interaction inhibitor test compounds was assessed in human leukemia cell lines. The cell lines MV-4-11 and MOLM14 harbor MILL translocations and express the MILL fusion proteins MLL-AF4 and MLL-AF9, respectively, as well as the wildtype protein from the second allele. […] K562 was used as a control cell line containing two MLL wildtype alleles in order to exclude compounds that display general cytotoxic effects.
# MV-4-11 and MOLM14 were cultured in RPMI-1640 (Sigma Aldrich) supplemented with 10% fetal bovine serum (HyClone), 2 mM L-glutamine (Sigma Aldrich) and 50 μg/ml gentamycin (Gibco). K562 were propagated in RPMI-1640 (Sigma Aldrich) supplemented with 20% fetal bovine serum (HyClone), 2 mM L-glutamine (Sigma Aldrich) and 50 μg/ml gentamycin (Gibco).
# In order to assess the anti-proliferative effects, 1,500 MV-4-11, 300 MOLM14 or 750 K562 cells were seeded in 200 μl media per well in 96-well round bottom, ultra-low attachment plates (Costar, catalogue number 7007). Cell seeding numbers were chosen based on growth curves to ensure linear growth throughout the experiment. Test compounds were added at different concentrations and the DMSO content was normalized to 0.3%. Cells were incubated for 8 d at 37° C. and 5% CO2. Spheroid like growth was monitored in real-time by live-cell imaging (IncuCyteZOOM, Essenbio, 4× objective) acquiring one image every four hours for 8 d. Confluence (%) as a measure of spheroid size was determined using an integrated analysis tool.
# In order to determine the cumulative effect of the test compounds over time, the area under the curve (AUC) in a plot of confluence against time was calculated. Confluence at the beginning of the experiment (t=0) was used as baseline for the AUC calculation.
# Absolute IC50 values were calculated according to the following procedure: % Control=(AUC sample/AUC control)*100
# AUC control mean AUC of control values (cells without compound/DMSO as vehicle control)
# A non-linear curve fit was applied using the least squares (ordinary) fit method to the plot of % control versus compound concentration. Based on this, the absolute IC50 value (half maximal inhibitory concentration of the test compound causing an anti-proliferative effect of 50% relative to the vehicle control) was calculated.
# [3] = system: MOLM14; assay: Proliferation assay B (spheroid assay) MOLM14; format: cell-based, human; details: MOLM14 cells, confluence at day 8, absolute IC50, read-out: (3b) Spheroid assay MOLM14 (IC50(μM)) Assay B
# How it was run: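 Leukemia cells grown as spheroids in ultra-low-attachment round-bottom wells with compound at 0.3% DMSO for 8 d at 37 °C. Confluence imaged at day 8 as spheroid size, normalized between DMSO and 1 μM staurosporine controls; absolute IC50 from sigmoidal fit with bounds fixed at 0 and 100%.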
# [4] = location 2, read-out: (2) location 2 Menin HTRF assay (IC50 (nM))
# [5] = location 1, read-out: (2) location 1 Menin HTRF assay (IC50 (nM))
Structure (SMILES),"IC50 [1, 4] [nM]","IC50 ([2]; Homo sapiens, MV4-11, 192 h) [µM]",other results
CN(C)CC1CC2(CCN(c3ncnc4sc(CC(F)(F)F)cc34)C2)C1 (mixture of isomers) [Compound 196],133,3.91,
N#CCc1ccc(NC2CC3(CCN(c4nc(N)nc5sc(CC(F)(F)F)cc45)C3)C2)cc1 (mixture of isomers) [Compound 377],7.5,1.12,
CNc1nc(N2CCC3(CC(Nc4ccc5oc(=O)[nH]c5c4)C3)C2)c2cc(CC(F)(F)F)sc2n1 (mixture of isomers) [Compound 396],17.8,1.8,
"FC(F)(F)Cc1cc2c(N3CCC4(CCC(NCc5ccccc5)CC4)C3)ncnc2s1 (single isomer, unassigned) [Compound 2]",84.5,1.64,"IC50 [1, 5]: 91.2 nM"
"N#CCc1ccc(NC2CC3(CCN(c4ncnc5sc(CC(F)(F)F)cc45)C3)C2)c(Cl)c1 (single isomer, unassigned) [Compound 208]",37.7,3.16,
"CNS(=O)(=O)c1ccc(N[C@H]2CCC3(C2)CN(c2ncnc4sc(CC(F)(F)F)cc24)C3)cc1 (single isomer, unassigned) [Compound 291]",51.9,> 3.75,
"O=C1Cc2ccc(N[C@@H]3CCC4(C3)CN(c3ncnc5sc(CC(F)(F)F)cc35)C4)cc2N1 (single isomer, unassigned) [Compound 293]",11,2.77,
"O=c1[nH]c2ccc(NC3CC4(CCN(c5ncnc6sc(CC(F)(F)F)cc56)C4)C3)cc2[nH]1 (single isomer, unassigned) [Compound 321]",915,,IC50 [2]: > 3.75 µM
"N#CCc1ccc(NC2CC3(CCN(c4nc(N)nc5sc(CC(F)(F)F)cc45)C3)C2)cc1 (single isomer, unassigned) [Compound 378]",42.9,> 3.75,
"Nc1nc(N2CCC3(CC(Nc4ccc5[nH]c(=O)oc5c4)C3)C2)c2cc(CC(F)(F)F)sc2n1 (single isomer, unassigned) [Compound 385]",27.2,,IC50 [2]: > 3.75 µM
FC(F)(F)Cc1cc2c(N3CC4(CCC(Nc5ccccc5)C4)C3)ncnc2s1 (stereo not drawn) [Compound 7],658,13.5,
CS(=O)(=O)Nc1ccc(C(=O)NC2CC3(CCN(c4ncnc5sc(CC(F)(F)F)cc45)C3)C2)cc1 (stereo not drawn) [Compound 27],585,11.9,
FC(F)(F)Cc1cc2c(N3CCC4(CC(CNc5ccccc5)C4)C3)ncnc2s1 (stereo not drawn) [Compound 38],447,5.21,
CS(=O)(=O)N1CCC(C(N)=O)(c2ccc(NC3CC4(CCN(c5ncnc6sc(CC(F)(F)F)cc56)C4)C3)cc2)CC1 (stereo not drawn) [Compound 376],30.6,,"IC50 ([3]; Homo sapiens, MOLM-14, 192 h): > 3.75 µM"
O=C(c1ccc(NC2CC3(C2)CN(c2ncnc4sc(CC(F)(F)F)cc24)C3)cc1)N1CCOCC1 [Compound 423],135,,"IC50 ([3]; Homo sapiens, MOLM-14, 192 h): > 3.75 µM"

# Further compounds by falling IC50 [1, 4], results first:
"IC50 [1, 4] [nM]","IC50 ([2]; Homo sapiens, MV4-11, 192 h) [µM]",Structure (SMILES),other results
450,3.55,O=S(=O)(NC1CC2(CCN(c3ncnc4sc(CC(F)(F)F)cc34)C2)C1)c1ccccc1 (mixture of isomers) [Compound 22],
339,10,CN(CC1CC2(CCN(c3ncnc4sc(CC(F)(F)F)cc34)C2)C1)c1ccccc1 (stereo not drawn) [Compound 41],
94.8,> 3.75,"O=c1[nH]c2ccc(N[C@@H]3CCC4(C3)CN(c3ncnc5sc(CC(F)(F)F)cc35)C4)cc2[nH]1 (single isomer, unassigned) [Compound 299]",
82.9,> 3.75,CNS(=O)(=O)c1ccc(NC2CCC3(C2)CN(c2ncnc4sc(CC(F)(F)F)cc24)C3)cc1 (racemic) [Compound 279],
78.6,> 3.75,"CNc1nc(N2CCC3(CC(Nc4ccccc4)C3)C2)c2cc(CC(F)(F)F)sc2n1 (single isomer, unassigned) [Compound 269]",
68.3,2.6,CNc1nc(N2CCC3(CC(Nc4ccc5[nH]c(=O)[nH]c5c4)C3)C2)c2cc(CC(F)(F)F)sc2n1 (mixture of isomers) [Compound 393],
63.8,,"FC(F)(F)Cc1cc2c(N3CC[C@]4(CC[C@@H](NCc5ccccc5)C4)C3)ncnc2s1 (single isomer, unassigned) [Compound 5]","IC50 [1, 5]: 304 nM; IC50 [2]: 1.69 µM"
48.6,4.9,FC(F)(F)Cc1cc2c(N3CCC4(CC(Nc5ccccc5)C4)C3)ncnc2s1 (mixture of isomers) [Compound 35],
47.3,1.23,Nc1nc(N2CCC3(CC(NCc4ccccc4)C3)C2)c2cc(CC(F)(F)F)sc2n1 (mixture of isomers) [Compound 263],
43.7,,CS(=O)(=O)N1CCN(CC(O)c2ccc(NC3CC4(CCN(c5ncnc6sc(CC(F)(F)F)cc56)C4)C3)cc2)CC1 (stereo not drawn) [Compound 354],"IC50 ([3]; Homo sapiens, MOLM-14, 192 h): > 3.75 µM"
41.6,3.71,"O=c1[nH]c2ccc(NC3CC4(CCN(c5ncnc6sc(CC(F)(F)F)cc56)C4)C3)cc2[nH]1 (single isomer, unassigned) [Compound 320]",
27.8,2.73,Cn1c(=O)[nH]c2cc(NC3CC4(CCN(c5ncnc6sc(CC(F)(F)F)cc56)C4)C3)ccc21 (stereo not drawn) [Compound 89],
26.4,3.66,"O=c1[nH]c2ccc(NC3CC4(CCN(c5ncnc6sc(CC(F)(F)F)cc56)C4)C3)cc2o1 (single isomer, unassigned) [Compound 323]",
20.1,0.91,FC(F)(F)Cc1cc2c(N3CCC4(CC(Nc5ccc(-c6cn[nH]c6)cc5)C4)C3)ncnc2s1 (mixture of isomers) [Compound 326],
19.6,1.26,CC(=O)Nc1ccc(NC2CC3(CCN(c4ncnc5sc(CC(F)(F)F)cc45)C3)C2)cc1 (mixture of isomers) [Compound 330],
18.2,2.13,"N#CCc1ccc(NC2CC3(CCN(c4ncnc5sc(CC(F)(F)F)cc45)C3)C2)cc1Cl (single isomer, unassigned) [Compound 211]",
18,,CS(=O)(=O)N[C@H]1CC[C@@H](NC2CC3(CCN(c4ncnc5sc(CC(F)(F)F)cc45)C3)C2)CC1 (stereo partly drawn) [Compound 272],IC50 [3]: 2.56 µM
8.8,1.26,CNS(=O)(=O)c1ccc(NC2CC3(CCN(c4ncnc5sc(CC(F)(F)F)cc45)C3)C2)cc1 (mixture of isomers) [Compound 316],
5.3,0.48,FC(F)(F)Cc1cc2c(N3CCC4(CC(Nc5ccc(-c6cc[nH]n6)cc5)C4)C3)ncnc2s1 (stereo not drawn) [Compound 92],
5.1,,CS(=O)(=O)N1CC(CC(C#N)c2ccc(NC3CC4(CCN(c5ncnc6sc(CC(F)(F)F)cc56)C4)C3)cc2)C1 (stereo not drawn) [Compound 339],"IC50 ([3]; Homo sapiens, MOLM-14, 192 h): 2.41 µM"
